Legend:
[1] = Concentration of vitamin B12 (drug) in blood, rat sciatic nerve crush injury model; assay type: in vivo; conditions: 6 weeks after surgery; mean±SEM
Method: The examination on the sheet that contained the present extract as a drug was carried out in the same manner.
Blood was collected in an amount of 1 mL from the left ventricle of a rat under anesthesia 6 weeks after the surgery. The collected blood was centrifuged at 800×g for 20 minutes to collect a supernatant. The measurement of a concentration of vitamin B12 in the blood was entrusted to BML, INC. (Tokyo).

[2] = test system: rat sciatic nerve injury model; conditions: continuous high-dose administration; Non-Patent Document 2; cited from earlier work
[3] = test system: neurons; conditions: Non-Patent Document 2; cited from earlier work
[4] = test system: rat sciatic nerve crush injury model; experiment: Motor function, sciatic function index (SFI), rat sciatic nerve crush injury model; assay type: in vivo; conditions: 6 weeks after surgery; 0 = normal, −100 = impaired; untreated group −20.6±4.2; mean±SEM
Method: (§1) All of animal experiments were went ahead with the approval of the Ethics Committee of the animal laboratory of Osaka University. Six-week-old male Wistar rats (body weights: about 200 g) were used. All of the surgeries were carried out while applying deep sedation with a mixed anesthetic drug composed of midazolam (2 mg/kg), butorphanol (2.5 mg/kg) and medetomidine (0.15 mg/kg). A left sciatic nerve was exposed under clean operations, and a crush injury was applied to a position 5 mm distal to a sciatic notch with a pair of forceps. The time of crushing was 10 seconds, the frequency of crushing operations was three times, and the intervals between the crushing operations was 10 seconds. The fascia and the skin were sutured together with 4-0 nylon. […] The systemic administration of methylcobalamin was performed by placing an osmotic minipump (Model 2ML2; Alzet, Cupertino, CA, USA) under the skin of the back. […]
For the evaluation of a motor function, a sciatic function index (SFI) was measured 6 weeks after the surgery. For the measurement of an SFI, an ink was applied to the back paw of a rat, then the rat was allowed to walk on office paper placed on a 40 cm-square horizontal table, and then foot prints of the rat were recorded. The four items mentioned below were measured to calculate an SFI. […] An SFI value was calculated in accordance with the following mathematical formula. […]

[5] = test system: Erk1/2 and Akt; conditions: through the methylation cycle; Non-Patent Document 2; cited from earlier work
[6] = test system: rat sciatic nerve crush injury model; experiment: Histological evaluation (axons, MBP-positive axons), rat sciatic nerve crush injury model; assay type: in vivo; conditions: 6 weeks after surgery, mean±SEM
Method: (§2) All of animal experiments were went ahead with the approval of the Ethics Committee of the animal laboratory of Osaka University. Six-week-old male Wistar rats (body weights: about 200 g) were used. All of the surgeries were carried out while applying deep sedation with a mixed anesthetic drug composed of midazolam (2 mg/kg), butorphanol (2.5 mg/kg) and medetomidine (0.15 mg/kg). A left sciatic nerve was exposed under clean operations, and a crush injury was applied to a position 5 mm distal to a sciatic notch with a pair of forceps. The time of crushing was 10 seconds, the frequency of crushing operations was three times, and the intervals between the crushing operations was 10 seconds. The fascia and the skin were sutured together with 4-0 nylon. […] The systemic administration of methylcobalamin was performed by placing an osmotic minipump (Model 2ML2; Alzet, Cupertino, CA, USA) under the skin of the back. All of the surgeries were carried out by the same practitioner.
Each of the rats 6 weeks after the surgery was sedated with an anesthetic drug, and a left sciatic nerve was collected therefrom and then fixed with 4% PFA for 5 days and with 20% sucrose for 24 hours and then frozen and embedded. […] The total number of axons and the ratio of myelinated axons (total number of MBP-positive axons)/(total number of axons) were evaluated.

[7] = test system: rat sciatic nerve crush injury model; experiment: Electrophysiological evaluation (CMAP, TL, NCV), rat sciatic nerve crush injury model; assay type: in vivo; conditions: 6 weeks after surgery, mean±SEM
Method: as §2
Each of the rats 3 or 6 weeks after the surgery was sedated with an anesthetic drug and was then placed on an operating table in a prone position. A left sciatic nerve and a left tibialis anterior muscle were exposed. Each of a compound muscle action potential (CMAP) and a terminal latency (TL) was measured while stimulating a proximal site of a sciatic nerve with a bipolar electrode. A nerve conduction velocity (NCV) was calculated from measurement values respectively obtained at a proximal site and a distal site to the sciatic nerve crush injury while stimulating the positions with a bipolar electrode. In the measurement and the evaluation, AD Instruments Power Lab 2/26, Stimulus isolator, and Bio Amp and Chart & Scope software (all manufactured by AD Instruments, Bel la Vista, NSW, Australis) were used.

[8] = test system: rat sciatic nerve crush injury model; experiment: Sensory function, von Frey filament test, rat sciatic nerve crush injury model; assay type: in vivo; conditions: 6 weeks after surgery; untreated group 117.8±11.7 g; mean±SEM
Method: as §1
For the evaluation of a sensory function, a mechanical hind paw withdrawal threshold was measured 6 weeks after the surgery using a von Frey filament (0.008 to 26 g; Touch Test, North Coast Medical Inc, Gilroy, CA, USA). Each of the rats was made walk on a metallic mesh, then a pressure was applied onto the center of the sole until the filament began to bend, and then a value at which the rat evoked an escape behavior was recorded.

C/C1=C2/[N-][C@H]([C@H](CC(N)=O)[C@@]2(C)CCC(=O)NC[C@@H](C)OP(=O)([O-])O[C@H]2[C@@H](O)[C@@H](n3cnc4cc(C)c(C)cc43)O[C@@H]2CO)[C@]2(C)N=C(/C(C)=C3N=C(/C=C4N=C1[C@@H](CCC(N)=O)C\4(C)C)[C@@H](CCC(N)=O)[C@]\3(C)CC(N)=O)[C@@H](CCC(N)=O)[C@]2(C)CC(N)=O.[CH3-].[Co+3] [MeCbl pump, methylcobalamin]
concentration of vitamin B12 in the blood [1]: 18.35 ± 2.27 ng/mL
nerve regeneration and function recovery [2]: improves nerve regeneration and function recovery
concentration that can promote the elongation of neurites and the survival of neurons [3]: ≥ 100 nM
sciatic function index (SFI) [4]: −10.5±2.0
activities of Erk1/2 and Akt [5]: increase the activities of Erk1/2 and Akt
ratio of myelinated axons (number of MBP-positive axons)/(total number of axons) ([6]; untreated group 85.0±0.9%): 91.5±0.6%
number of regenerated axons per sq. mm ([6]; untreated group 2843±68/mm^2): 2735±77 /mm^2
terminal latency (TL) ([7]; untreated group 3.45±0.08 ms): 3.24 ± 0.07 ms
compound muscle action potential (CMAP) ([7]; untreated group 19.5±2.3 mV): 19.5±1.5 mV
nerve conduction velocity (NCV) ([7]; untreated group 28.2±2.5 m/s): 43.2±2.5 m/s
von Frey filament test, mechanical hind paw withdrawal threshold [8]: 77.8 ± 7.0 g

Source: patent US12016959B2, “Sustained drug release sheet for treating nerve injury” (OSAKA UNIVERSITY, priority 2016, dated 2024)
